In one test the target is T1, SYK kinase (Homo sapiens, UniProt P43405).
T1 construct: purchased Invitrogen, Carlsbad
In words: SYK Assay (OMNIA KINASE ASSAY, SOX peptide fluorescence). Format: biochemical. The note with it: apparent Ki calculated from the IC50 using the Cheng-Prusoff equation; 1 mM ATP, 30° C.; read-out: SYK Activities: Ki. In a few lines:
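Apparent Ki values are derived by Cheng-Prusoff from IC50s of sigmoidal fits of reaction rate against compound concentration. Rates come from chelation-enhanced SOX fluorescence (λex 360/λem 485 nm, read every 30 s over 30 min) as the kinase phosphorylates 10 µM Omnia Tyr 7 peptide at 30 °C, with 1 mM ATP and 0.2 mM DTT.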

The next test concerns the target MYLK (Homo sapiens, UniProt Q15746). Description: MYLK Assay (LanthaScreen Eu Kinase Binding Assay). The note with it: 5 nM MYLK, 30 nM tracer 236, RT 1 h; read-out: MYLK Activities: IC50. Here is the method:
In the assay LanthaScreen™ Eu Kinase Binding Assay by Invitrogen Corporation (Carlsbad) the effect of invention of a compound on the phosphorylation is determined by measurement of fluorescence intensity emission ratio based on the binding and displacement of a proprietary, Alexa Fluor® 647-labeled, ATP-competitive kinase inhibitor scaffold (kinase tracer) to the kinase of interest as described above.
To the wells of an 384 well small volume plate (Greiner, Frickenhausen) are added (i) the compound under test in 5% is DMSO/distilled water (5 μl), (ii) 5 μl of the kinase antibody mixture resulting in a final concentration 5 nM MYLK, 2 nM EU-Anti-GST antibody in 1× kinase buffer A. The reaction was started with addition of (iii) 5 μl resulting in a final concentration of 30 nM tracer 236. The assay plate was incubated at RT for 1 h and fluorescence intensity readings were collected using a TECAN M1000 at two wavelengths of λex 340/λem 615 nm and λex 340/λem 665 nm with a delay time of 100 μs and an integration time of 200 μs after 60 minutes. The emission ratio was calculated by division of the acceptor/tracer emission ([…]) by the antibody/donor emission ([…]). The inhibitor concentration was plotted versus the emission ratio to determine the IC50 using XLFit 5.0 (IDBS, Guildford) to fit to a sigmoidal dose response curve with a variable slope.
(In general: TR-FRET usually uses a lanthanide donor and a delayed reading to cut background.)

The next test concerns the target LRRK2 (Homo sapiens, UniProt Q5S007). In words: LRRK2-LRRK2 G2019S-Assay (LanthaScreen Eu Kinase Binding Assay). The note with it: 5 nM LRRK2 or their mutants, 10 nM tracer 236, RT 1 h; read-out: LRRK2 Activities: IC50. In a few lines: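 Kinase (wild type or mutant, 5 nM) mixed with Eu-anti-GST antibody (2 nM), then 10 nM Alexa Fluor 647 tracer 236 added. After 1 h at room temperature, the acceptor/donor (665/615 nm) FRET ratio was measured. IC50 was fitted from concentration–ratio curves.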

Consider 25 molecules from patent US9802937B2, “Substituted pyrazolo{4,3-D}pyrimidines as kinase inhibitors” (ORIGENIS GMBH, priority 2011, dated 2017).

One may read the IC50 as the midpoint of a concentration-inhibition curve.

Chain of MYLK (Q15746 whole entry): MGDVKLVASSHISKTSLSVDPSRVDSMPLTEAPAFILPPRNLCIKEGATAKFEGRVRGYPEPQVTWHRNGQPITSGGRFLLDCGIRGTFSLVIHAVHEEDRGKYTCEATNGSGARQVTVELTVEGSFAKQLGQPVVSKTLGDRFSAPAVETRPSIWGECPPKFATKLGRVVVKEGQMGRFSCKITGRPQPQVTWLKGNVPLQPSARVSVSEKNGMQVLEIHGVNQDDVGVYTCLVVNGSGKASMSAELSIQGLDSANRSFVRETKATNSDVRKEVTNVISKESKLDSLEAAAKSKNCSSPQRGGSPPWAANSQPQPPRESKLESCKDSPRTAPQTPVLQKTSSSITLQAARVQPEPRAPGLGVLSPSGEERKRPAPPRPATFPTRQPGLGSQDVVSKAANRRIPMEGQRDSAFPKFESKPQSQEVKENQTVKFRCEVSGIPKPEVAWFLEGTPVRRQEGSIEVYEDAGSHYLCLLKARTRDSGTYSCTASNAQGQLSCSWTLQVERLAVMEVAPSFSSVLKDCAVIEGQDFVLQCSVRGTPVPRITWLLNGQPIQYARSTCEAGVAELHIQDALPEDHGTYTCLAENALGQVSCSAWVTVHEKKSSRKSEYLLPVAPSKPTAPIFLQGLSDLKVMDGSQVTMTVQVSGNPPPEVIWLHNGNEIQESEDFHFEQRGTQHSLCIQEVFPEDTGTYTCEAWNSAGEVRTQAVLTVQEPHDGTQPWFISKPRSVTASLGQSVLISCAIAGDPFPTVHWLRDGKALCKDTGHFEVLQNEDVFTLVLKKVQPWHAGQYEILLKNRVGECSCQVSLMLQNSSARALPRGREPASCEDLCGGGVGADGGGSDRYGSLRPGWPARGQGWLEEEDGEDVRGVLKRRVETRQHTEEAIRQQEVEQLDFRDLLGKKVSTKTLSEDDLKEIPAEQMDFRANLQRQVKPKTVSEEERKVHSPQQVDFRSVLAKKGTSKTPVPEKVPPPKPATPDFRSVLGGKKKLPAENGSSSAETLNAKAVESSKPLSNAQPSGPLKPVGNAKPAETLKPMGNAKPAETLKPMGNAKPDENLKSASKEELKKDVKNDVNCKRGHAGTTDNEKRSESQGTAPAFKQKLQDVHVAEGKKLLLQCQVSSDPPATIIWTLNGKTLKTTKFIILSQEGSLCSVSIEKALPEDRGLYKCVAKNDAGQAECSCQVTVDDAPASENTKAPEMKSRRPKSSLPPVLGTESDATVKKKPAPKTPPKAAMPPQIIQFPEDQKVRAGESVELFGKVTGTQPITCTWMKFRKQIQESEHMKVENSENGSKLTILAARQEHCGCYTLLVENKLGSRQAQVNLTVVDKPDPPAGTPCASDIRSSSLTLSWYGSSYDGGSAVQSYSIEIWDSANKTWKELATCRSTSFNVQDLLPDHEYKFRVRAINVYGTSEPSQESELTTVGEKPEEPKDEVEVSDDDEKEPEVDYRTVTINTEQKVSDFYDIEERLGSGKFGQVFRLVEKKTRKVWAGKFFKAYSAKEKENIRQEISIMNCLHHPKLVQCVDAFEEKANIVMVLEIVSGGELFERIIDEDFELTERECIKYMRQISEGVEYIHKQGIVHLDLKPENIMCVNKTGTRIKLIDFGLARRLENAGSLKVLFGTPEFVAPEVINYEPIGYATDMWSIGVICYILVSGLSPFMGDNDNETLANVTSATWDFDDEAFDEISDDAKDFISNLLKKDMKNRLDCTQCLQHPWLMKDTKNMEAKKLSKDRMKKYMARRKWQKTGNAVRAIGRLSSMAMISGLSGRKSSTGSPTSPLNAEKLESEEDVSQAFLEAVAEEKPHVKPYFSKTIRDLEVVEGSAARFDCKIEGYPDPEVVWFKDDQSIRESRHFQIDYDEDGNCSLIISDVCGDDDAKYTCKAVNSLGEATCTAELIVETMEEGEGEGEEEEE
Chain of LRRK2 (Q5S007 970-2527 limits assumed): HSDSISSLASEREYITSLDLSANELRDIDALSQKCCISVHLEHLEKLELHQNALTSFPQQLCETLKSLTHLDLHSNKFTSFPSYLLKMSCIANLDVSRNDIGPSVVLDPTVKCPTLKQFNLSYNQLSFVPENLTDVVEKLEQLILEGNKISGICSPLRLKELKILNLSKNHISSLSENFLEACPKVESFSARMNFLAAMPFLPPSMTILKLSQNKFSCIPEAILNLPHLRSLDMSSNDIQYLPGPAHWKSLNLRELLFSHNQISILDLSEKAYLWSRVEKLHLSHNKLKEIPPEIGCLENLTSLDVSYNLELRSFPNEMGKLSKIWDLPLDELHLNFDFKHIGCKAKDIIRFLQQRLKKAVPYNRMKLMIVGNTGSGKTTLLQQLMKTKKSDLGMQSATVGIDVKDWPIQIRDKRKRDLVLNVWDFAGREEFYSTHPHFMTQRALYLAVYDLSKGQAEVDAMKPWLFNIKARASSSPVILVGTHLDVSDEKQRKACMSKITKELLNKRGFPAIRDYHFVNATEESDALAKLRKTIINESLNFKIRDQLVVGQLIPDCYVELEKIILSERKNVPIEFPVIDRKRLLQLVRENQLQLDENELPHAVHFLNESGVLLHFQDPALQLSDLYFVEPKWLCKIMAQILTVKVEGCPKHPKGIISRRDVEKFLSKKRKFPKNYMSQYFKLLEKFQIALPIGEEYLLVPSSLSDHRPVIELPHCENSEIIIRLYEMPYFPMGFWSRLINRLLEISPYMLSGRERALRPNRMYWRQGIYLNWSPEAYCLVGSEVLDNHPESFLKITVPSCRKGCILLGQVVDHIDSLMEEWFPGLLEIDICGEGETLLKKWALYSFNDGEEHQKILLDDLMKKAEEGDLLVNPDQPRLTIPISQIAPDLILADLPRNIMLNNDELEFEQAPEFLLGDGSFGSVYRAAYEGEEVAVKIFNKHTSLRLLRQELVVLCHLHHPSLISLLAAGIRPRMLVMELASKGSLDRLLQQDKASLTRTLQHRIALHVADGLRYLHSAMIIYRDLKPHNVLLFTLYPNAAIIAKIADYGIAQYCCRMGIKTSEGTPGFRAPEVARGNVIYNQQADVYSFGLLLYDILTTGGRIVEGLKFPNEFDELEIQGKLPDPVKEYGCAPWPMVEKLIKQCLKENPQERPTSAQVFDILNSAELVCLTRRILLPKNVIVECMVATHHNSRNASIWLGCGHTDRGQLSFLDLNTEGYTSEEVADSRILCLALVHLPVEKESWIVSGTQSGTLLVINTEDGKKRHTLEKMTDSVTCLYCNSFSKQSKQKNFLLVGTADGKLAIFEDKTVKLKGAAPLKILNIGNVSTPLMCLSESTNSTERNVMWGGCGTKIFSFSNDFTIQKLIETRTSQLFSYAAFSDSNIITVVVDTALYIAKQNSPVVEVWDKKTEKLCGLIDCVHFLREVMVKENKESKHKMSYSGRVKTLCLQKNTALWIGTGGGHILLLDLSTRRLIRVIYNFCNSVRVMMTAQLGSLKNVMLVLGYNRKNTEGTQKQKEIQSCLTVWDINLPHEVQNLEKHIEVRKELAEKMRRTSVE

On to `NC(=O)c1cccc(Nc2nc(-c3ccccc3)nc3cn[nH]c23)c1` [Example #5, 3-((5-phenyl-1H-pyrazolo[4,3-d]pyrimidin-7-yl)amino)benzamide], for which the Ki on SYK kinase is under 0.01 µM. The values for the IC50 on MYLK and at LRRK2 were under 5 µM and 0.1 to 1 µM, respectively.

Turning to `CN1CCN(c2ccc(Nc3nc(-c4ccncc4)nc4cn[nH]c34)cc2)CC1` [Example #20, N-(4-(4-methylpiperazin-1-yl)phenyl)-5-(pyridin-4-yl)-1H-pyrazolo[4,3-d]pyrimidin-7-amine], on SYK kinase, the Ki is under 0.01 µM. The IC50 was under 5 µM on MYLK and 0.1 to 1 µM at LRRK2.

`O=C1COc2ccc(Nc3nc(-c4ccncc4)nc4cn[nH]c34)cc2N1` [Example #21, 6-((5-(pyridin-4-yl)-1H-pyrazolo[4,3-d]pyrimidin-7-yl)amino)-2H-benzo[b][1,4]oxazin-3(4H)-one]: on SYK kinase, the Ki was 0.1 to 1 µM. Moreover, the figures for the half-inhibitory concentration (IC50) on MYLK and at LRRK2 were under 5 µM and 0.1 to 1 µM, respectively.

For the molecule `COc1ccc(-c2nc(Nc3ccc(N4CCN(C)CC4)cc3)c3[nH]ncc3n2)cc1OC` [Example #34, 5-(3,4-dimethoxyphenyl)-N-(4-(4-methylpiperazin-1-yl)phenyl)-1H-pyrazolo[4,3-d]pyrimidin-7-amine], at SYK kinase, the Ki was under 0.01 µM. The figures for the IC50 at MYLK and on LRRK2 were under 5 µM and 0.1 to 1 µM, respectively.

As for `CN1CCN(c2ccc(Nc3nc(-c4ccccc4)nc4cn[nH]c34)cc2)CC1` [Example #35, N-(4-(4-methylpiperazin-1-yl)phenyl)-5-phenyl-1H-pyrazolo[4,3-d]pyrimidin-7-amine], the Ki on SYK kinase was under 0.01 µM. Besides, the IC50 on MYLK is under 5 µM; at LRRK2, 0.1 to 1 µM.

With `CN1CCN(c2ccc(Nc3nc(-c4ccc(N5CCCC5)nc4)nc4cn[nH]c34)cc2)CC1` [Example #46, N-(4-(4-methylpiperazin-1-yl)phenyl)-5-(6-(pyrrolidin-1-yl)pyridin-3-yl)-1H-pyrazolo[4,3-d]pyrimidin-7-amine], the Ki at SYK kinase is under 0.01 µM. Moreover, the IC50 at MYLK is under 5 µM; on LRRK2, 0.01 to 0.1 µM.

Regarding `c1ccc(-c2nc(Nc3cc(C4CC4)[nH]n3)c3[nH]ncc3n2)cc1` [Example #57, N-(5-cyclopropyl-1H-pyrazol-3-yl)-5-phenyl-1H-pyrazolo[4,3-d]pyrimidin-7-amine], the Ki on SYK kinase is 0.01 to 0.1 µM. The IC50 on MYLK was under 5 µM.

In the case of `COc1ccc(-c2nc(Nc3ccc(OC)c(OC)c3)c3[nH]ncc3n2)cc1` [Example #58, N-(3,4-dimethoxyphenyl)-5-(4-methoxyphenyl)-1H-pyrazolo[4,3-d]pyrimidin-7-amine], the Ki at SYK kinase is under 0.01 µM. The figures for the IC50 at MYLK and at LRRK2 were under 5 µM and 0.1 to 1 µM, respectively.

For `COc1cccc(-c2nc(Nc3ccc(N4CCN(C)CC4)cc3)c3[nH]ncc3n2)c1` [Example #62, 5-(3-methoxyphenyl)-N-(4-(4-methylpiperazin-1-yl)phenyl)-1H-pyrazolo[4,3-d]pyrimidin-7-amine], on SYK kinase, the Ki was under 0.01 µM. The IC50 on MYLK was under 5 µM; on LRRK2 it was 0.01 to 0.1 µM.

Regarding `COc1ccc(Nc2nc(-c3cccs3)nc3cn[nH]c23)cc1OC` [Example #68, N-(3,4-dimethoxyphenyl)-5-(thiophen-2-yl)-1H-pyrazolo[4,3-d]pyrimidin-7-amine], the Ki at SYK kinase is under 0.01 µM. Further, the IC50 at MYLK is under 5 µM; at LRRK2, 0.1 to 1 µM.

Turning to `CN1CCN(c2ccc(Nc3nc(-c4cccs4)nc4cn[nH]c34)cc2)CC1` [Example #70, N-(4-(4-methylpiperazin-1-yl)phenyl)-5-(thiophen-2-yl)-1H-pyrazolo[4,3-d]pyrimidin-7-amine], the Ki on SYK kinase was under 0.01 µM. The results for the IC50 at MYLK and on LRRK2 were under 5 µM and 0.01 to 0.1 µM, respectively.

On to `CN1CCN(c2ccc(Nc3nc(-c4ccsc4)nc4cn[nH]c34)cc2)CC1` [Example #74, N-(4-(4-methylpiperazin-1-yl)phenyl)-5-(thiophen-3-yl)-1H-pyrazolo[4,3-d]pyrimidin-7-amine], for which the Ki on SYK kinase was under 0.01 µM. Moreover, the IC50 on MYLK was under 5 µM; at LRRK2, 0.1 to 1 µM.

Consider `Oc1cccc(Nc2nc(-c3cccs3)nc3cn[nH]c23)c1` [Example #83, 3-((5-(thiophen-2-yl)-1H-pyrazolo[4,3-d]pyrimidin-7-yl)amino)phenol], for which the Ki on SYK kinase was 0.01 to 0.1 µM. Also, the IC50 was under 5 µM at MYLK and 0.1 to 1 µM on LRRK2.

For the molecule `c1csc(-c2nc(Nc3ccc4c(c3)NCCO4)c3[nH]ncc3n2)c1` [Example #91, N-(5-(thiophen-2-yl)-1H-pyrazolo[4,3-d]pyrimidin-7-yl)-3,4-dihydro-2H-benzo[b][1,4]oxazin-6-amine], the Ki at SYK kinase was under 0.01 µM. The values for the IC50 at MYLK and on LRRK2 were under 5 µM and 0.01 to 0.1 µM, respectively.

In the case of `CN1CCN(c2ccc(Nc3nc(-c4nc5ccccc5s4)nc4cn[nH]c34)cc2)CC1` [Example #95, 5-(benzo[d]thiazol-2-yl)-N-(4-(4-methylpiperazin-1-yl)phenyl)-1H-pyrazolo[4,3-d]pyrimidin-7-amine], the Ki on SYK kinase was under 0.01 µM. For the same molecule, the results for the IC50 at MYLK and on LRRK2 were under 5 µM and 0.01 to 0.1 µM, respectively.

`COc1ccc(-c2nc(Nc3ccc(C(=O)N4CCCC4)cc3)c3[nH]ncc3n2)cc1` [Example #160, (4-((5-(4-methoxyphenyl)-1H-pyrazolo[4,3-d]pyrimidin-7-yl)amino)phenyl)(pyrrolidin-1-yl)methanone]: at SYK kinase, the Ki was under 0.01 µM. At MYLK, the IC50 is under 5 µM.

`CN1CCN(c2ccc(Nc3nc(-c4cc(C(=O)O)cs4)nc4cn[nH]c34)cc2)CC1` [Example #175, 5-(7-((4-(4-methylpiperazin-1-yl)phenyl)amino)-1H-pyrazolo[4,3-d]pyrimidin-5-yl)thiophene-3-carboxylic acid]: on SYK kinase, the Ki was under 0.01 µM. Further, the IC50 on MYLK is under 5 µM.

As to `CN1CCN(c2ccc(Nc3nc(-c4ccc(C(=O)O)cc4)nc4cn[nH]c34)cc2)CC1` [Example #241, 4-(7-((4-(4-methylpiperazin-1-yl)phenyl)amino)-1H-pyrazolo[4,3-d]pyrimidin-5-yl)benzoic acid], on SYK kinase, the Ki was under 0.01 µM. The IC50 on MYLK was under 5 µM.

With `Cc1nc2cc(Nc3nc(-c4cccc(S(C)(=O)=O)c4)nc4cn[nH]c34)ccc2[nH]1` [Example #252, N-(2-methyl-1H-benzo[d]imidazol-5-yl)-5-(3-(methylsulfonyl)phenyl)-1H-pyrazolo[4,3-d]pyrimidin-7-amine], the Ki on SYK kinase was 0.01 to 0.1 µM. Also, at MYLK, the IC50 was under 5 µM.

`O=S(=O)(CCO)c1cccc(Nc2nc(-c3cccs3)nc3cn[nH]c23)c1` [Example #255, 2-((3-((5-(thiophen-2-yl)-1H-pyrazolo[4,3-d]pyrimidin-7-yl)amino)phenyl)sulfonyl)ethan-1-ol]: the Ki at SYK kinase is 0.1 to 1 µM. For the same molecule, the IC50 at MYLK was under 5 µM.

Turning to `CS(=O)(=O)c1cccc(Nc2nc(-c3ccccc3F)nc3cn[nH]c23)c1` [Example #276, 5-(2-fluorophenyl)-N-(3-(methylsulfonyl)phenyl)-1H-pyrazolo[4,3-d]pyrimidin-7-amine], the Ki on SYK kinase was 0.01 to 0.1 µM. The IC50 on MYLK was under 5 µM.

Turning to `CS(=O)(=O)c1ccccc1Nc1nc(-c2ccccc2F)nc2cn[nH]c12` [Example #277, 5-(2-fluorophenyl)-N-(2-(methylsulfonyl)phenyl)-1H-pyrazolo[4,3-d]pyrimidin-7-amine], on SYK kinase, the Ki is 0.1 to 1 µM. Further, the IC50 at MYLK is under 5 µM.

`Fc1ccc(-c2nc(Nc3ccc(N4CCOCC4)cc3)c3[nH]ncc3n2)c(F)c1` [Example #286, 5-(2,4-difluorophenyl)-N-(4-morpholinophenyl)-1H-pyrazolo[4,3-d]pyrimidin-7-amine]: on SYK kinase, the Ki was 0.01 to 0.1 µM. Also, the half-inhibitory concentration (IC50) on MYLK is under 5 µM.

In the case of `O=C1COc2ccc(-c3nc(Nc4ccc(N5CCOCC5)cc4)c4[nH]ncc4n3)cc2N1` [Example #288, 6-(7-((4-morpholinophenyl)amino)-1H-pyrazolo[4,3-d]pyrimidin-5-yl)-2H-benzo[b][1,4]oxazin-3(4H)-one], on SYK kinase, the Ki was 0.01 to 0.1 µM. In addition, the IC50 on MYLK is under 5 µM.

Turning to `Cc1nc2cc(Nc3nc(-c4ccc5c(c4)NC(=O)CO5)nc4cn[nH]c34)ccc2[nH]1` [Example #289, 6-(7-((2-methyl-1H-benzo[d]imidazol-5-yl)amino)-1H-pyrazolo[4,3-d]pyrimidin-5-yl)-2H-benzo[b][1,4]oxazin-3(4H)-one], the Ki on SYK kinase was 0.01 to 0.1 µM. For the same molecule, the IC50 at MYLK was under 5 µM.
